Results as given in ChEMBL document CHEMBL4118173, “Discovery of benzimidazole derivatives as orally active renin inhibitors: Optimization of 3,5-disubstituted piperidine to improve pharmacokinetic profile” (Bioorg Med Chem, 2018).
Residue numbers refer to the chain shown, from its start. Active and inactive are the calls of the source. The rule behind the calls is not given here.

Key:
[1] = AUC in cynomolgus monkey at 0.1 mg/kg, iv administered as cassette dose by LC-MS/MS analysis; format: ADME, organism-based, Macaca fascicularis; conditions: in vivo
[2] = Clearance in cynomolgus monkey at 0.1 mg/kg, iv or 1 mg/kg, po administered as cassette dose by LC-MS/MS analysis; format: ADME, organism-based, Macaca fascicularis; conditions: in vivo
[3] = AUC in cynomolgus monkey at 1 mg/kg, po administered as cassette dose by LC-MS/MS analysis; format: ADME, organism-based, Macaca fascicularis; conditions: in vivo
[4] = Cmax in cynomolgus monkey at 0.1 mg/kg, iv or 1 mg/kg, po administered as cassette dose by LC-MS/MS analysis; format: ADME, organism-based, Macaca fascicularis; conditions: in vivo
[5] = Tmax in cynomolgus monkey at 0.1 mg/kg, iv or 1 mg/kg, po administered as cassette dose by LC-MS/MS analysis; format: ADME, organism-based, Macaca fascicularis; conditions: in vivo
[6] = Oral bioavailability in cynomolgus monkey at 1 mg/kg administered as cassette dose by LC-MS/MS analysis; format: ADME, organism-based, Macaca fascicularis; conditions: in vivo
Cynomolgus monkey [7] = assay: In vivo inhibition of plasma renin in po dosed cynomolgus monkey measured at 4 and 24 hrs post dose by radioimmunoassay; format: functional, organism-based; conditions: Macaca fascicularis
Renin [8] = target: T1, Renin (Rattus norvegicus, UniProt P08424)
T1 sequence (P08424 whole entry): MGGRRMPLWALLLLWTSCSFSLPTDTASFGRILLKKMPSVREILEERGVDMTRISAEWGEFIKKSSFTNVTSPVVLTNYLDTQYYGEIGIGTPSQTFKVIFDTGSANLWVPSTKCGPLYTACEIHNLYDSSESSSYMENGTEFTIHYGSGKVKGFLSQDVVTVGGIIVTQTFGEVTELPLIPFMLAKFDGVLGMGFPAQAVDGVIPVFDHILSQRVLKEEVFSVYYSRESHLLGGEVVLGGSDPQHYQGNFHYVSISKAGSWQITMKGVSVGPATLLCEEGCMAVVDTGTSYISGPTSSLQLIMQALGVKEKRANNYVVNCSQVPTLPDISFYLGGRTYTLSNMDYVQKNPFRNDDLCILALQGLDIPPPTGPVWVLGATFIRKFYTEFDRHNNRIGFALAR
Description: Inhibition of renin in rat plasma

Renin [9] = target: T2, Renin (Macaca mulatta, UniProt Q6DLW5)
T2 sequence (Q6DLW5 whole entry): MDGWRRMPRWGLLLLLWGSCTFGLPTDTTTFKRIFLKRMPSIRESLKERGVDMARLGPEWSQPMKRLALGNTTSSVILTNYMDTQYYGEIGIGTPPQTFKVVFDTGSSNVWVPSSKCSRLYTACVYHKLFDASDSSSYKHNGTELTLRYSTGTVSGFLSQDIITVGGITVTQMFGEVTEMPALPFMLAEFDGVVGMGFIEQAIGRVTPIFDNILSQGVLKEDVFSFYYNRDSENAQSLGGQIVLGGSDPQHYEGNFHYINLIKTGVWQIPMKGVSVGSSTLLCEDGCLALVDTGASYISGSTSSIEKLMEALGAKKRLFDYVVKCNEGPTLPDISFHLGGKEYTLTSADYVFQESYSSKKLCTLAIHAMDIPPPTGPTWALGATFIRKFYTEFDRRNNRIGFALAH
Description: Inhibition of renin in monkey plasma

in vivo [10] = conditions: rat, iv, 0.1 mg/kg
in vivo [11] = conditions: rat, po, 1 mg/kg
in vivo [12] = conditions: rat, iv
Description: Clearance in rat at 0.1 mg/kg, iv or 1 mg/kg, po administered as cassette dose by LC-MS/MS analysis

in vivo [13] = conditions: rat, po, 1 mg/kg; remark: listed apart in the source
physchem = conditions: 1-octanol/aqueous buffer, pH 7.4
Description: 1-octanol/aqueous buffer partition coefficient, log D of the compound at pH 7.4 by UV-vis/HPLC method

in vitro = conditions: PAMPA, pH 7.4
Description: Permeability of the compound at pH 7.4 buffer after 3 hrs by PAMPA

Rattus norvegicus [14] = species: Rattus norvegicus; conditions: in vivo, po, 1 mg/kg
Renin [15] = target: T3, Renin (Homo sapiens, UniProt P00797)
T3 sequence (P00797 whole entry): T2 sequence (Q6DLW5 whole entry) with A68T, L214I, A235S, P270Q, H406R
Description: Inhibition of recombinant human renin using angiotensinogen as substrate pretreated for 10 mins followed by substrate addition measured after 30 mins in absence of human serum albumin by ELISA

Renin [16] = target: T3, Renin; remark: listed apart in the source
Description: Inhibition of recombinant human renin using angiotensinogen as substrate pretreated for 10 mins followed by substrate addition measured after 30 mins in presence of human serum albumin by ELISA

Renin [17] = target: T3, Renin; remark: listed apart in the source
Description: Inhibition of renin in human plasma by radioimmunoassay

Cynomolgus monkey [18] = conditions: Macaca fascicularis; Plasma; 15 mg/kg
Cynomolgus monkey [19] = conditions: Macaca fascicularis; Plasma; 5 to 15 mg/kg
Rattus norvegicus [20] = assay: Metabolic stability in rat at 0.1 mg/kg, iv or 1 mg/kg, po administered as cassette dose by LC-MS/MS analysis; format: ADME, organism-based; conditions: in vivo

AUC (in vivo [10])	AUC (in vivo [11])	clearance (in vivo [12])	bioavailability (in vivo [13])	logD (physchem)	Papp at 3 h (in vitro)	IC50 (Renin [15])	IC50 (Renin [16])	IC50 (Renin [17])	SMILES	other results
68 ng·h/mL	92.2 ng·h/mL	25.9 mL/min/kg	14%	2.11	34.5 ×10⁻⁶ cm/s	–	–	–	COCCCCn1c(C(=O)N(CC(C)C)[C@@H]2CNC[C@H](C(=O)N3CCOCC3)C2)nc2ccccc21	AUC [1]: 128 ng·h/mL; clearance [2]: 14.2 mL/min/kg; AUC [3]: 323 ng·h/mL; Cmax [4]: 29.1 ng/mL; Tmax [5]: 1.67 h; bioavailability [6]: 25%; inhibition (Cynomolgus monkey [7]): Dose-dependent effect; IC50 (Renin [8]): 310 nM; IC50 (Renin [9]): 1.5 nM
42 ng·h/mL	–	–	–	4.77	43.5 ×10⁻⁶ cm/s	–	–	–	CCCCCCc1nc(C(C)(C)C)ncc1C(=O)N(CC(C)C)[C@@H]1CNC[C@H](C(=O)N2CCOCC2)C1	AUC (Rattus norvegicus [14]): 20.9 ng·h/mL
27.3 ng·h/mL	–	62.4 mL/min/kg	< 1%	4.45	25.2 ×10⁻⁶ cm/s	0.2 nM	0.64 nM	5.4 nM	CCCCCNc1nc(C(C)(C)C)ncc1C(=O)N(CC(C)C)[C@@H]1CNC[C@H](C(=O)N2CCOCC2)C1	–
43.5 ng·h/mL	9.5 ng·h/mL	39 mL/min/kg	2.2%	1.54	6.3 ×10⁻⁶ cm/s	1.6 nM	2.1 nM	1.1 nM	COCCCCc1c(C(=O)N(CC(C)C)[C@@H]2CNC[C@H](C(=O)N3CCOCC3)C2)nc2ccccn12	–
13.3 ng·h/mL	–	127 mL/min/kg	< 1%	1.84	7.8 ×10⁻⁶ cm/s	0.83 nM	1.1 nM	1.2 nM	COCCCCc1c(C(=O)N(CC(C)C)[C@@H]2CNC[C@H](C(=O)N3CCOCC3)C2)ncn1-c1ccccc1	–
15.3 ng·h/mL	–	112 mL/min/kg	< 1%	1.79	11.6 ×10⁻⁶ cm/s	1.4 nM	1.8 nM	1.2 nM	COCCCCn1c(C(=O)N(CC(C)C)[C@@H]2CNC[C@H](C(=O)N3CCOCC3)C2)nnc1-c1ccccc1	–
–	–	–	–	–	–	–	–	–	COCCCOc1cc(C[C@@H](C[C@H](N)[C@@H](O)C[C@H](C(=O)NCC(C)(C)C(N)=O)C(C)C)C(C)C)ccc1OC	AUC [1]: 501 ng·h/mL; clearance [2]: 3.37 mL/min/kg; AUC [3]: 25.9 ng·h/mL; Cmax [4]: 3.5 ng/mL; Tmax [5]: 3.33 h; bioavailability [6]: 0.6%; inhibition (Cynomolgus monkey [18]): Active; inhibition (Cynomolgus monkey [19]): Active
–	–	–	–	2.12	–	48 nM	35 nM	–	COCCCCn1c(C(=O)N(CC(C)C)[C@@H]2CNC[C@H](C(=O)N3CCOCC3)C2)cnc1C(C)(C)C	–
34.6 ng·h/mL	18.5 ng·h/mL	49.5 mL/min/kg	5.4%	3.08	21.7 ×10⁻⁶ cm/s	0.16 nM	1.4 nM	3.4 nM	COCCCCn1c(C(=O)N(CC(C)C)[C@@H]2CNC[C@H](C(=O)N3CCOCC3)C2)ccc1-c1ccccc1	–
50.7 ng·h/mL	41.7 ng·h/mL	34.2 mL/min/kg	8.2%	1.74	6 ×10⁻⁶ cm/s	0.76 nM	0.59 nM	4 nM	CC(C)CN(C(=O)c1nc2ccccc2[nH]1)[C@@H]1CNC[C@H](C(=O)N2CCOCC2)C1	–
17.6 ng·h/mL	–	96.7 mL/min/kg	< 1%	2.03	7.2 ×10⁻⁶ cm/s	4.4 nM	3.3 nM	2.8 nM	COCCCCn1c(C(=O)N(CC(C)C)[C@@H]2CNC[C@H](C(=O)N3CCOCC3)C2)cnc1-c1ccccc1	–
–	–	–	–	1.98	20.2 ×10⁻⁶ cm/s	0.72 nM	1.5 nM	2.6 nM	COCCCCn1c(C(=O)N(CC(C)C)[C@@H]2CNC[C@H](C(C)(C)O)C2)nc2ccccc21	–
14.1 ng·h/mL	–	121 mL/min/kg	< 1%	2.99	39 ×10⁻⁶ cm/s	–	–	–	COCCCNc1nc(C(C)(C)C)ncc1C(=O)N(CC(C)C)[C@@H]1CNC[C@H](C(=O)N2CCOCC2)C1	Stability (Rattus norvegicus [20]): Stable
–	–	–	–	2.73	–	2 nM	3.6 nM	–	COCCCCn1nc(C(C)(C)C)cc1C(=O)N(CC(C)C)[C@@H]1CNC[C@H](C(=O)N2CCOCC2)C1	–
20.8 ng·h/mL	0.7 ng·h/mL	80.4 mL/min/kg	0.3%	1.78	7.8 ×10⁻⁶ cm/s	1.1 nM	1.2 nM	1.3 nM	COCCCCc1c(C(=O)N(CC(C)C)[C@@H]2CNC[C@H](C(=O)N3CCOCC3)C2)cnn1-c1ccccc1	–
–	–	–	–	2.68	–	> 100 nM	> 100 nM	–	COCCCCn1nc(-c2ccccc2)cc1C(=O)N(CC(C)C)[C@@H]1CNC[C@H](C(=O)N2CCOCC2)C1	–
43.9 ng·h/mL	74.2 ng·h/mL	38.9 mL/min/kg	17%	1.71	27.4 ×10⁻⁶ cm/s	0.63 nM	0.66 nM	2.9 nM	CC(C)CN(C(=O)c1nc2ccccc2n1C)[C@@H]1CNC[C@H](C(=O)N2CCOCC2)C1	–
108 ng·h/mL	103 ng·h/mL	15.5 mL/min/kg	9.6%	1.77	8.2 ×10⁻⁶ cm/s	0.28 nM	0.32 nM	1.5 nM	COCCCCn1c(C(=O)N(CC(C)C)[C@@H]2CNC[C@H](CO)C2)nc2ccccc21	–
43.4 ng·h/mL	58.9 ng·h/mL	38.5 mL/min/kg	14%	1.79	24.2 ×10⁻⁶ cm/s	0.66 nM	0.89 nM	1.3 nM	CCn1c(C(=O)N(CC(C)C)[C@@H]2CNC[C@H](C(=O)N3CCOCC3)C2)nc2ccccc21	–
18.4 ng·h/mL	3.5 ng·h/mL	92.4 mL/min/kg	1.9%	1.94	36.9 ×10⁻⁶ cm/s	1 nM	0.65 nM	0.4 nM	COCCCCc1c(C(=O)N(CC(C)C)[C@@H]2CNC[C@H](C(=O)N3CCOCC3)C2)nnn1-c1ccccc1	–
–	–	–	–	1.73	5.5 ×10⁻⁶ cm/s	16 nM	21 nM	> 10 nM	CCn1c(C(=O)N(CC(C)C)[C@@H]2CNC[C@H](CO)C2)nc2ccccc21	–
–	–	–	–	–	–	2.2 nM	2.7 nM	3.3 nM	COCCCCc1c(C(=O)N(CC(C)C)[C@@H]2CNC[C@H](C(=O)N3CCOCC3)C2)nc2n1CCCC2	–
52.1 ng·h/mL	59.7 ng·h/mL	33 mL/min/kg	12%	2	32.4 ×10⁻⁶ cm/s	0.9 nM	1.6 nM	9.1 nM	COCCCCn1c(C(=O)N(CC(C)C)[C@H]2CCCNC2)nc2ccccc21	–
–	–	–	–	2.81	27.2 ×10⁻⁶ cm/s	> 100 nM	> 100 nM	–	COCCCOc1nc(C(C)(C)C)ncc1C(=O)N(CC(C)C)[C@@H]1CNC[C@H](C(=O)N2CCOCC2)C1	–
